# Key:
# wheat = test: Test B pre/postemergence wheat; assay type: in vivo, Triticum aestivum
# Procedure, shortened: (§1)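 Test chemicals in a non-phytotoxic solvent mixture with surfactant were sprayed preemergence onto planted seeds and postemergence onto plants 2 to 18 cm tall (1- to 4-leaf stage). After twelve to sixteen days in a greenhouse, injury was visually rated against untreated controls from 0 (no effect) to 10 (complete control).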
# corn = test: Test B pre/postemergence corn; assay type: in vivo, Zea mays
# Procedure, shortened: as §1
# surinam grass = test: Test B pre/postemergence surinam grass; assay type: in vivo, Brachiaria decumbens
# Procedure, shortened: as §1
# morningglory = test: Test B pre/postemergence morningglory; assay type: in vivo, Ipomoea hederacea
# Procedure, shortened: as §1
# soybean = test: Test B pre/postemergence soybean; assay type: in vivo, Glycine max
# Procedure, shortened: as §1
# pigweed = test: Test B pre/postemergence pigweed; assay type: in vivo, Amaranthus retroflexus
# Procedure, shortened: as §1
# wild oat = test: Test B pre/postemergence wild oat; assay type: in vivo, Avena fatua
# Procedure, shortened: as §1
# sugar beet = test: Test B pre/postemergence sugar beet; assay type: in vivo, Beta vulgaris
# Procedure, shortened: as §1
# giant foxtail = test: Test B pre/postemergence giant foxtail; assay type: in vivo, Setaria faberii
# Procedure, shortened: as §1
# rape = test: Test B pre/postemergence rape; assay type: in vivo, Brassica napus
# Procedure, shortened: as §1
# blackgrass = test: Test B pre/postemergence blackgrass; assay type: in vivo, Alopecurus myosuroides
# Procedure, shortened: as §1
# bedstraw = test: Test B pre/postemergence bedstraw; assay type: in vivo, Galium aparine; details: Preemergence
# Procedure, shortened: as §1
# crabgrass = test: Test B pre/postemergence crabgrass; assay type: in vivo, Digitaria sanguinalis
# Procedure, shortened: as §1
# cocklebur = test: Test B pre/postemergence cocklebur; assay type: in vivo, Xanthium strumarium
# Procedure, shortened: as §1
# velvetleaf = test: Test B pre/postemergence velvetleaf; assay type: in vivo, Abutilon theophrasti
# Procedure, shortened: as §1
# purple nutsedge = test: Test B pre/postemergence purple nutsedge; assay type: in vivo, Cyperus rotundus
# Procedure, shortened: as §1
# [1] = Postemergence, Rate 62 g/ha, scale of 0 to 10, 0 is no effect, 10 is complete control
# [2] = Postemergence, Rate 125 g/ha, scale 0 to 10, 0 is no effect, 10 is complete control
# [3] = Postemergence, Rate 500 g/ha, scale 0 to 10, 0 is no effect, 10 is complete control
# [4] = Preemergence, Rate 62 g/ha, scale of 0 to 10 where 0 is no effect and 10 is complete control
# [5] = Preemergence, Rate 125 g/ha, scale 0 to 10, 0 is no effect, 10 is complete control
# [6] = Preemergence, Rate 500 g/ha, scale of 0 to 10 where 0 is no effect and 10 is complete control
# [7] = Postemergence, Rate 250 g/ha, scale 0 to 10
# [8] = Preemergence, Rate 250 g/ha, scale 0 to 10, 0 is no effect, 10 is complete control
# [9] = Rate 62 g/ha, scale of 0 to 10 where 0 is no effect and 10 is complete control
# [10] = Preemergence, Rate 125 g/ha, scale of 0 to 10 where 0 is no effect and 10 is complete control
# [11] = Preemergence, Rate 250 g/ha, scale 0 to 10 (0 no effect, 10 complete control)
structure (smiles),measurement,setting,value
CC(Cl)=CCn1c(=O)on(C(=O)N(c2ccc(F)cc2F)C(C)C)c1=O [Compound 514],Wheat plant response rating,wheat; [1],0
same,Wheat plant response rating,wheat; [2],0
same,"Plant response rating, Wheat",wheat; [3],0
same,"Plant response rating, Wheat",wheat; [4],0
same,Wheat plant response rating,wheat; [5],0
same,Wheat plant response rating,wheat; [6],4
same,Corn plant response rating,corn; [1],0
same,Corn plant response rating,corn; [2],0
same,Corn plant response rating,corn; [7],0
same,"Plant response rating, Corn",corn; [3],5
same,"Plant response rating, Corn",corn; [4],0
same,Corn plant response rating,corn; [5],0
same,Corn plant response rating,corn; [6],5
same,B. signalgrass plant response rating,surinam grass; [1],0
same,B. signalgrass plant response rating,surinam grass; [2],0
same,B. signalgrass plant response rating,"surinam grass; Postemergence, Rate 250 g/ha, scale 0 to 10, 0 no effect, 10 complete control",3
same,"Plant response rating, B. signalgrass",surinam grass; [3],5
same,"Plant response rating, B. signalgrass",surinam grass; [4],6
same,B. signalgrass plant response rating,surinam grass; [5],6
same,B. signalgrass plant response rating,surinam grass; [8],8
same,B. signalgrass plant response rating,"surinam grass; Preemergence, Rate 500 g/ha, scale 0 to 10, 0 is no effect, 10 is complete control",10
same,Morningglory plant response rating,morningglory; [1],2
same,Morningglory plant response rating,morningglory; [2],7
same,"Plant response rating, Morningglory",morningglory; [3],7
same,"Plant response rating, Morningglory",morningglory; [4],0
same,Morningglory plant response rating,morningglory; [5],0
same,Morningglory plant response rating,morningglory; [6],0
same,Soybean plant response rating,soybean; [1],6
same,Soybean plant response rating,soybean; [2],7
same,"Plant response rating, Soybean",soybean; [3],7
same,"Plant response rating, Soybean",soybean; [4],0
same,Soybean plant response rating,soybean; [5],0
same,Soybean plant response rating,soybean; [6],0
same,Redroot pigweed plant response rating,pigweed; [1],0
same,Redroot pigweed plant response rating,pigweed; [2],2
same,"Plant response rating, Redroot pigweed",pigweed; [3],8
same,"Plant response rating, Redroot pigweed",pigweed; [4],7
same,Redroot pigweed plant response rating,pigweed; [5],8
same,Redroot pigweed plant response rating,pigweed; [6],10
same,Wild oats plant response rating,wild oat; [1],0
same,Wild oats plant response rating,wild oat; [2],0
same,"Plant response rating, Wild oats",wild oat; [3],3
same,"Plant response rating, Wild oats",wild oat; [4],3
same,Wild oats plant response rating,wild oat; [5],4
same,Wild oats plant response rating,wild oat; [6],6
same,Sugarbeets plant response rating,sugar beet; [1],3
same,Sugarbeets plant response rating,sugar beet; [2],3
same,"Plant response rating, Sugarbeets",sugar beet; [3],5
same,"Plant response rating, Sugarbeets",sugar beet; [4],0
same,Sugarbeets plant response rating,sugar beet; [5],5
same,Sugarbeets plant response rating,sugar beet; [6],6
same,Giant foxtail plant response rating,giant foxtail; [1],6
same,Giant foxtail plant response rating,giant foxtail; [2],9
same,"Plant response rating, Giant foxtail",giant foxtail; [3],9
same,"Plant response rating, Giant foxtail",giant foxtail; [4],9
same,Giant foxtail plant response rating,giant foxtail; [5],10
same,Giant foxtail plant response rating,giant foxtail; [6],10
same,Rape plant response rating,rape; [1],6
same,Rape plant response rating,rape; [2],6
same,"Plant response rating, Rape",rape; [3],8
same,"Plant response rating, Rape",rape; [4],0
same,Rape plant response rating,rape; [5],0
same,Rape plant response rating,rape; [6],8
same,Blackgrass plant response rating,blackgrass; [1],0
same,Blackgrass plant response rating,blackgrass; [2],3
same,Blackgrass plant response rating,blackgrass; [7],5
same,"Plant response rating, Blackgrass",blackgrass; [3],5
same,"Plant response rating, Blackgrass",blackgrass; [4],2
same,Blackgrass plant response rating,blackgrass; [5],2
same,Blackgrass plant response rating,blackgrass; [8],5
same,Blackgrass plant response rating,blackgrass; [6],7
same,"Plant response rating, Bedstraw",bedstraw; [9],0
same,Bedstraw plant response rating,"bedstraw; Rate 250 g/ha, scale 0 to 10, 0 is no effect, 10 is complete control",0
same,Bedstraw plant response rating,"bedstraw; Rate 500 g/ha, scale 0 to 10, 0 is no effect, 10 is complete control",0
same,Crabgrass plant response rating,crabgrass; [1],7
same,Crabgrass plant response rating,crabgrass; [2],9
same,Crabgrass plant response rating,crabgrass; [7],9
same,"Plant response rating, Crabgrass",crabgrass; [3],10
same,"Plant response rating, Crabgrass",crabgrass; [4],5
same,Crabgrass plant response rating,crabgrass; [5],7
same,Crabgrass plant response rating,crabgrass; [6],10
same,Cocklebur plant response rating,cocklebur; [1],0
same,Cocklebur plant response rating,cocklebur; [2],1
same,Cocklebur plant response rating,cocklebur; [7],3
same,"Plant response rating, Cocklebur",cocklebur; [3],5
same,"Plant response rating, Cocklebur",cocklebur; [4],0
same,Cocklebur plant response rating,cocklebur; [5],0
same,Cocklebur plant response rating,cocklebur; [8],0
same,Cocklebur plant response rating,cocklebur; [6],0
same,Velvetleaf plant response rating,velvetleaf; [1],2
same,Velvetleaf plant response rating,velvetleaf; [2],2
same,"Plant response rating, Velvetleaf",velvetleaf; [3],5
same,"Plant response rating, Velvetleaf",velvetleaf; [4],0
same,Velvetleaf plant response rating,velvetleaf; [5],0
same,Velvetleaf plant response rating,velvetleaf; [6],5
same,Nutsedge plant response rating,purple nutsedge; [1],0
same,Nutsedge plant response rating,purple nutsedge; [2],0
same,"Plant response rating, Nutsedge",purple nutsedge; [3],0
same,"Plant response rating, Nutsedge",purple nutsedge; [4],0
same,Nutsedge plant response rating,purple nutsedge; [6],0
CC(C)N(C(=O)n1oc(=O)n(C(C)C)c1=O)c1ccc(Br)cc1 [Compound 691],Wheat plant response rating,wheat; [4],0
same,"Plant response rating, Wheat",wheat; [10],0
same,Corn plant response rating,corn; [4],0
same,"Plant response rating, Corn",corn; [10],0
same,"Plant response rating, Corn",corn; [11],0
same,B. signalgrass plant response rating,surinam grass; [4],0
same,"Plant response rating, B. signalgrass",surinam grass; [10],8
same,"Plant response rating, B. signalgrass",surinam grass; [11],9
same,"Plant response rating, B. signalgrass",surinam grass; [6],10
same,Morningglory plant response rating,morningglory; [4],0
same,"Plant response rating, Morningglory",morningglory; [10],0
same,Soybean plant response rating,soybean; [4],2
same,"Plant response rating, Soybean",soybean; [10],2
same,Redroot pigweed plant response rating,pigweed; [4],2
same,"Plant response rating, Redroot pigweed",pigweed; [10],3
same,Wild oats plant response rating,wild oat; [4],2
same,"Plant response rating, Wild oats",wild oat; [10],6
same,Sugarbeets plant response rating,sugar beet; [4],0
same,"Plant response rating, Sugarbeets",sugar beet; [10],2
same,Giant foxtail plant response rating,giant foxtail; [4],9
same,"Plant response rating, Giant foxtail",giant foxtail; [10],10
same,Rape plant response rating,rape; [4],0
same,"Plant response rating, Rape",rape; [10],3
same,Blackgrass plant response rating,blackgrass; [4],4
same,"Plant response rating, Blackgrass",blackgrass; [10],9
same,"Plant response rating, Blackgrass",blackgrass; [11],10
same,"Plant response rating, Blackgrass",blackgrass; [6],10
same,Bedstraw plant response rating,bedstraw; [9],0
same,"Plant response rating, Bedstraw","bedstraw; Rate 125 g/ha, scale of 0 to 10 where 0 is no effect and 10 is complete control",9
same,"Plant response rating, Bedstraw","bedstraw; Rate 250 g/ha, scale 0 to 10 (0 no effect, 10 complete control)",9
same,Crabgrass plant response rating,crabgrass; [4],9
same,"Plant response rating, Crabgrass",crabgrass; [10],9
same,"Plant response rating, Crabgrass",crabgrass; [11],10
same,Cocklebur plant response rating,cocklebur; [4],0
same,"Plant response rating, Cocklebur",cocklebur; [11],0
same,"Plant response rating, Cocklebur",cocklebur; [6],0
same,Velvetleaf plant response rating,velvetleaf; [4],0
same,"Plant response rating, Velvetleaf",velvetleaf; [10],0
same,Nutsedge plant response rating,purple nutsedge; [4],0

# Reference: patent US6737383B1, “Herbicidal oxadiazolidines” (priority 1999, dated 2004)
